In patent publication US20060241297A1, “Pyridinylamino-pyrimidine derivatives as protein kinase inhibitors” (Cyclacel Limited, priority 2003, published 2006):
Read-outs that look alike come from different tables or passages of the source.

What was measured:
[1] = tested on: transformed human cell lines (A549, HT29, Saos-2); test: 72-h MTT cytotoxicity assay, average over cell lines; type: cell-based
Procedure: (§1) The compounds from the examples above were subjected to a standard cellular proliferation assay using human tumour cell lines obtained from the ATCC (American Type Culture Collection, 10801 University Boulevard, Manessas, Va. 20110-2209, USA). Standard 72-h MTT (thiazolyl blue; 3-[4,5-dimethylthiazol-2-yl]-2,5-diphenyltetrazolium bromide) assays were performed. In short: cells were seeded into 96-well plates according to doubling time and incubated overnight at 37° C. Test compounds were made up in DMSO and a 1/3 dilution series prepared in 100 μL cell media, added to cells (in triplicates) and incubated for 72 ho at 37° C. MTT was made up as a stock of 5 mg/mL in cell media and filter-sterilised. Media was removed from cells followed by a wash with 200 μL PBS. MTT solution was then added at 20 μL per well and incubated in the dark at 37° C. for 4 h. MTT solution was removed and cells again washed with 200 μL PBS. MTT dye was solubilised with 200 μL per well of DMSO with agitation. Absorbance was read at 540 nm and data analysed using curve-fitting software (GraphPad Prism version 3.00 for Windows, GraphPad Software, San Diego Calif. USA) to determine IC50 values (concentration of test compound which inhibits cell growth by 50%). Various modifications and variations of the described aspects of the invention will be apparent to those skilled in the art without departing from the scope and spirit of the invention. Although the invention has been described in connection with specific preferred embodiments, it should be understood that the invention as claimed should not be unduly limited to such specific embodiments. Indeed, various modifications of the described modes of carrying out the invention which are obvious to those skilled in the relevant fields are intended to be within the scope of the following claims.

A549 = test: 72-h MTT cytotoxicity assay; type: cell-based; settings: Homo sapiens
Procedure: as §1

Saos-2 = test: 72-h MTT cytotoxicity assay; type: cell-based; settings: Homo sapiens
Procedure: as §1

HT29 = test: 72-h MTT cytotoxicity assay; type: cell-based; settings: Homo sapiens, HT-29
Procedure: as §1

CDK7/cyclin H = CDK7/cyclin H (Homo sapiens, UniProt P50613); test: Kinase assay, incorporation of radioactive phosphate from ATP; type: biochemical; settings: 100 μM ATP, 30° C.; read-out: Kinase inhibition Ki CDK7/cyclin H
CDK7/cyclin H, sequence (P50613 whole entry): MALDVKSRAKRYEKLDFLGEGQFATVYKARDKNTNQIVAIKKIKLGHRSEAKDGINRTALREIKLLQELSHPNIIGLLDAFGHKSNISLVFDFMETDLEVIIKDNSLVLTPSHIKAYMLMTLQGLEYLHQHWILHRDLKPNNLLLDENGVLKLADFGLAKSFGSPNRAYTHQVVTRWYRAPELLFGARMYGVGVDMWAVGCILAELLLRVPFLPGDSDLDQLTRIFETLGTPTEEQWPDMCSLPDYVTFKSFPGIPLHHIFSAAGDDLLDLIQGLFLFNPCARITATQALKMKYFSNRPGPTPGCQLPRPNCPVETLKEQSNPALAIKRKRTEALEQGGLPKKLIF
CDK7/cyclin H, sequence (P51946 whole entry partner): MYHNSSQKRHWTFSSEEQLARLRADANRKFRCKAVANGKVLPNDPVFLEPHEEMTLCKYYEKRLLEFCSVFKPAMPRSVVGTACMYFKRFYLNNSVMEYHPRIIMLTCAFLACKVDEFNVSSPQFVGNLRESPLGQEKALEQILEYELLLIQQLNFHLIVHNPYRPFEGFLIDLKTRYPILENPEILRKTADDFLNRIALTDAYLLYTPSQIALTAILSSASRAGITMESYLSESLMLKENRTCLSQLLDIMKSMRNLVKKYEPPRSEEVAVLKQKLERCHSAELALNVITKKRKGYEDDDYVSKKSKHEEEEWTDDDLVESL
Procedure: (§2) The compounds from the examples above were investigated for their ability to inhibit the enzymatic activity of various protein kinases. This was achieved by measurement of incorporation of radioactive phosphate from ATP into appropriate polypeptide substrates. Recombinant protein kinases and kinase complexes were produced or obtained commercially. Assays were performed using 96-well plates and appropriate assay buffers (typically 25 mM β-glycerophosphate, 20 mM MOPS, 5 mM EGTA, 1 mM DTT, 1 mM […], pH 7.4), into which were added 2-4 μg of active enzyme with appropriate substrates. The reactions were initiated by addition of Mg/ATP mix (15 mM MgCl2+100 μM ATP with 30-50 kBq per well of [γ-^32P]-ATP) and mixtures incubated as required at 30° C. Reactions were stopped on ice, followed by filtration through p81 filterplates or GF/C filterplates (Whatman Polyfiltronics, Kent, UK). After washing 3 times with 75 mM aq orthophosphoric acid, plates were dried, scintillant added and incorporated radioactivity measured in a scintillation counter (TopCount, Packard Instruments, Pangboume, Berks, UK). Compounds for kinase assay were made up as 10 mM stocks in DMSO and diluted into 10% DMSO in assay buffer. Data was analysed using curve-fitting software (GraphPad Prism version 3.00 for Windows, GraphPad Software, San Diego Calif. USA) to determine IC50 values (concentration of test compound which inhibits kinase activity by 50%.).

CDK2/cyclin E = CDK2/cyclin E (Homo sapiens, UniProt P24941); test: as above; type: biochemical; settings: 100 μM ATP, 30° C.; read-out: Kinase inhibition Ki CDK2/cyclin E
Procedure: as §2

CDK4/cyclin D1 = CDK4/cyclin D1 (Homo sapiens, UniProt P11802); test: as above; type: biochemical; settings: 100 μM ATP, 30° C.; read-out: Kinase inhibition Ki CDK4/cyclin D1
CDK4/cyclin D1, sequence (P11802 whole entry): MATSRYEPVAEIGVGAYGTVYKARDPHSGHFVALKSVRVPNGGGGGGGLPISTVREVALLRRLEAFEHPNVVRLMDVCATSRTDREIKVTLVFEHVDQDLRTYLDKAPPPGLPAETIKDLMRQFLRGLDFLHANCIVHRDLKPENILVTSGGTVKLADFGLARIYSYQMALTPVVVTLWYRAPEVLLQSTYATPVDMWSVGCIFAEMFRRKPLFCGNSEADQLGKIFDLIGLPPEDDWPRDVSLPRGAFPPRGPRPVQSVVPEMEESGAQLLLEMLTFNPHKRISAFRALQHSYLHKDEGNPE
CDK4/cyclin D1, sequence (P24385 whole entry partner): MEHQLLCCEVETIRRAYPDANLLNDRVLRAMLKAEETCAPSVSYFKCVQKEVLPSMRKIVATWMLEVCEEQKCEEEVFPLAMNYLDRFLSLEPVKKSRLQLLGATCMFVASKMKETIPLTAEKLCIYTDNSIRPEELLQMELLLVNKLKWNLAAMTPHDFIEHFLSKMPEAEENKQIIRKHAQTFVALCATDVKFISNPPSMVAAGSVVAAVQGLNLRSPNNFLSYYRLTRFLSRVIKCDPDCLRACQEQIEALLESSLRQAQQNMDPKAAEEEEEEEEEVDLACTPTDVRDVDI
Procedure: as §2

CDK9/cyclin T1 = CDK9/cyclin T1 (Homo sapiens, UniProt P50750); test: as above; type: biochemical; settings: 100 μM ATP, 30° C.; read-out: Kinase inhibition Ki CDK9/cyclin T1
CDK9/cyclin T1, sequence (P50750 whole entry): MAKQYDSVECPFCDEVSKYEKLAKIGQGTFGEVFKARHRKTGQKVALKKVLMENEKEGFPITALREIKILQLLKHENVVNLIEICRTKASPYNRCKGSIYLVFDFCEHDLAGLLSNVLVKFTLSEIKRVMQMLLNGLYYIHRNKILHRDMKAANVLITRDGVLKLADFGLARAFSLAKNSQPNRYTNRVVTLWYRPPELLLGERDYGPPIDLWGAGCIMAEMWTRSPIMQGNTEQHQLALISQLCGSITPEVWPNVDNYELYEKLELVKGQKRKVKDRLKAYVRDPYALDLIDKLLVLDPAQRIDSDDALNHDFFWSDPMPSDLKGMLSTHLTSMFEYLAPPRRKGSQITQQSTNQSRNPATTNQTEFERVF
CDK9/cyclin T1, sequence (O60563 whole entry partner): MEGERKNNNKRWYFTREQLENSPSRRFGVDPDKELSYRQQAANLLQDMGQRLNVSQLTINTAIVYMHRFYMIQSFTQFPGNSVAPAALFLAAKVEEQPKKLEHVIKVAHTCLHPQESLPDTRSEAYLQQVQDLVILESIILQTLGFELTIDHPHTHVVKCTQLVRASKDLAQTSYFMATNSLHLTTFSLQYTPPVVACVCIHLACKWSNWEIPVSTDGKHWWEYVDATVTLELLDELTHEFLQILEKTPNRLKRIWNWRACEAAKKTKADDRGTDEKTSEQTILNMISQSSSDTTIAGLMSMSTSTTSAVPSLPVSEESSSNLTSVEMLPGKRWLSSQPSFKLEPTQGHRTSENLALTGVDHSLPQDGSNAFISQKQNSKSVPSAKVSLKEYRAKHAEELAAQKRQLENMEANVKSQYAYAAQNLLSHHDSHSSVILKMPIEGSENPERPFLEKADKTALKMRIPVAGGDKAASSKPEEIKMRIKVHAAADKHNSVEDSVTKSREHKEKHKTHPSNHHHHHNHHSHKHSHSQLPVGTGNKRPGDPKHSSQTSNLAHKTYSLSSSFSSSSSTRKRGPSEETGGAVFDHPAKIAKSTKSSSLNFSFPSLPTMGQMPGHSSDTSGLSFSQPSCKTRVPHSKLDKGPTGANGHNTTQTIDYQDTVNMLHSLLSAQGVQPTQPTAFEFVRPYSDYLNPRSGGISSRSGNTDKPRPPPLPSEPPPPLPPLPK
Procedure: as §2

CDK1/cyclin B = CDK1/cyclin B (Homo sapiens, UniProt P06493); test: as above; type: biochemical; settings: 100 μM ATP, 30° C.; read-out: Kinase inhibition Ki CDK1/cyclin B
CDK1/cyclin B, sequence (P06493 whole entry): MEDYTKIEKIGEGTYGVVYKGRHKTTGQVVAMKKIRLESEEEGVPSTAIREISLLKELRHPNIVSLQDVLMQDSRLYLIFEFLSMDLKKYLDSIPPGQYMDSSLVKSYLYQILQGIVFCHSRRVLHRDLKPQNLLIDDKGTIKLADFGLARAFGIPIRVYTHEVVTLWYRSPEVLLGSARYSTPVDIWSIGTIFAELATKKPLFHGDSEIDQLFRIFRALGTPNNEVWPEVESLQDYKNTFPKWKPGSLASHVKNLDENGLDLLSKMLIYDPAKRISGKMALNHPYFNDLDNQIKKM
CDK1/cyclin B, sequence (P14635 whole entry partner): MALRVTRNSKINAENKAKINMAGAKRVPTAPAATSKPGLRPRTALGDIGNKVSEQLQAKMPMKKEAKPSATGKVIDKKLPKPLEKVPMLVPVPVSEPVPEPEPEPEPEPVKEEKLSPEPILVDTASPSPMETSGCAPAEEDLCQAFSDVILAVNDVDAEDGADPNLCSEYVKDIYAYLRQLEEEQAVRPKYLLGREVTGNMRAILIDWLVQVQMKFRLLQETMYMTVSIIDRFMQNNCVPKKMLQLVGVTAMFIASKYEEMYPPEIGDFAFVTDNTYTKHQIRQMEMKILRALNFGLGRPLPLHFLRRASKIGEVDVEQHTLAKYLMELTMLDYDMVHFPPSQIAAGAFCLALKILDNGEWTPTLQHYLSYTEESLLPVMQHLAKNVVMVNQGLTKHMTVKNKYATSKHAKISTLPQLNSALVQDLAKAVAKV
Procedure: as §2

CDK2/cyclin A = CDK2/cyclin A (Homo sapiens, UniProt P24941); test: as above; type: biochemical; settings: 100 μM ATP, 30° C.; read-out: Kinase inhibition Ki CDK2/cyclin A
Procedure: as §2

GSK3β = GSK3β (Homo sapiens, UniProt P49841); test: as above; type: biochemical; settings: 100 μM ATP, 30° C.; read-out: Kinase inhibition Ki GSK3β
GSK3β, sequence (P49841 whole entry): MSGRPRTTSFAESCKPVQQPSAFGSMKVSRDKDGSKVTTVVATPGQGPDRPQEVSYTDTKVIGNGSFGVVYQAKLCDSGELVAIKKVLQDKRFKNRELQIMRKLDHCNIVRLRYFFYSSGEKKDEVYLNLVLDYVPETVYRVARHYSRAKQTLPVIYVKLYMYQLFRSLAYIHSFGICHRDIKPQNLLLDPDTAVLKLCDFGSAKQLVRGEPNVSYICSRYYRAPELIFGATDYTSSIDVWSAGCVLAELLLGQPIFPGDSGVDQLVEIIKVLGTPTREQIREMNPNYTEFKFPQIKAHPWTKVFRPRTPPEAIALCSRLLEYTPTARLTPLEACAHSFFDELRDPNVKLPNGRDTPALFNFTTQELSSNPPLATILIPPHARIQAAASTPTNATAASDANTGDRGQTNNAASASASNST
Procedure: as §2

[2] = average of A549, HT29, Saos-2, read-out: 72-h MTT IC50 Average
[3] = in vitro, read-out: IC50 value (average) against one or more transformed human cell lines, 72-h MTT cytotoxicity assay

| Ki (CDK7/cyclin H) [nM] | Ki (CDK2/cyclin E) [nM] | Ki (CDK4/cyclin D1) [nM] | Ki (CDK9/cyclin T1) [nM] | Ki (CDK1/cyclin B) [nM] | Ki (CDK2/cyclin A) [nM] | Ki (GSK3β) [nM] | SMILES | IC50 [1, 2] [nM] | IC50 [1, 3] [nM] | IC50 (A549) [nM] | IC50 (Saos-2) [nM] | IC50 (HT29) [nM] |
| --- | --- | --- | --- | --- | --- | --- | --- | --- | --- | --- | --- | --- |
| 1400 | 130 | 460 | 280 | 2800 | 1400 |  | COc1ccc(Nc2nccc(-c3sc(C)nc3C)n2)cn1 [Compound 6, [4-(2,4-Dimethyl-thiazol-5-yl)-pyrimidin-2-yl]-(6-methoxy-pyridin-3-yl)-amine] | 4600 ± 3100 | < 10000 | 5100 | 7500 | 1400 |
| 650 | 250 | 250 | 120 | 2300 | 950 | 100 | COCCNc1nc(C)c(-c2ccnc(Nc3ccc(OC)nc3)n2)s1 [Compound 13, {4-[2-(2-Methoxy-ethylamino)-4-methyl-thiazol-5-yl]-pyrimidin-2-yl}-(6-methoxy-pyridin-3-yl)-amine] |  |  |  |  |  |
| 130 | 50 | 80 | 90 | 100 | 30 | 60 | CCNc1nc(C)c(-c2ccnc(Nc3ccc(OC)nc3)n2)s1 [Compound 12, [4-(2-Ethylamino-4-methyl-thiazol-5-yl)-pyrimidin-2-yl]-(6-methoxy-pyridin-3-yl)-amine] | 1200 ± 400 |  | 1200 | 1500 | 800 |
| 2300 | 120 | 70 | 140 | 1200 | 330 | 110 | COc1ccc(Nc2nccc(-c3sc(N(C)C)nc3C)n2)cn1 [Compound 10, [4-(2-Dimethylamino-4-methyl-thiazol-5-yl)-pyrimidin-2-yl]-(6-methoxy-pyridin-3-yl)-amine] | 2000 ± 400 |  | 2400 | 1800 | 1700 |
| 280 |  | 80 | 80 |  | 1500 | 2900 | CNc1nc(C)c(-c2ccnc(Nc3ccc(N4CCN(C)CC4)nc3)n2)s1 [Compound 15, [4-(4-Methyl-2-methylamino-thiazol-5-yl)-pyrimidin-2-yl]-[6-(4-methyl-piperazin-1-yl)-pyridin-3-yl]-amine] |  |  |  |  |  |
| 1500 | 50 | 70 | 5 | 2000 | 860 | 160 | Cc1nc(N)sc1-c1ccnc(Nc2ccc(Cl)nc2)n1 [Compound 7, [4-(2-Amino-4-methyl-thiazol-5-yl)-pyrimidin-2-yl]-(6-chloro-pyridin-3-yl)-amine] | 3200 ± 100 | < 10000 | 3300 | 3100 | 3400 |
|  | 110 | 340 | 80 |  |  |  | Cc1nc(C)c(-c2ccnc(Nc3cccnc3)n2)s1 [Compound 1, [4-(2,4-Dimethyl-thiazol-5-yl)-pyrimidin-2-yl]-pyridin-3-yl-amine] | 3600 ± 300 | < 10000 | 3200 | 3700 | 3700 |
|  | 140 |  | 21 | 1500 |  | 11 | Cc1c(-c2ccnc(Nc3ccc(Cl)nc3)n2)sc(=O)n1C [Compound 4, 5-[2-(6-chloro-pyridin-3-ylamino)-pyrimidin-4-yl]-3,4-dimethyl-3H-thiazol-2-one] | 1100 ± 600 |  | 1100 | 1700 | 600 |
| 230 | 110 | 1200 | 27 | 3400 | 370 | 13 | CCn1c(C)c(-c2ccnc(Nc3ccc(OC)nc3)n2)sc1=O [Compound 11, 3-Ethyl-5-[2-(6-methoxy-pyridin-3-ylamino)-pyrimidin-4-yl]-4-methyl-3H-thiazol-2-one] |  |  |  |  |  |
